Experimental data published in ChEMBL document CHEMBL6074695, “Structural Aspects of Mycobacterium tuberculosis DNA Gyrase Targeted by Novel Bacterial Topoisomerase Inhibitors” (ACS Med Chem Lett, 2024).
Values after ≈ are worked out from the molar mass of the structure shown.

Test system: Mycobacterium tuberculosis
Format: functional, organism-based
Details: H37Rv, 120 h

| SMILES | IC50 [nM] | MIC (time 5 day) [µM] |
| --- | --- | --- |
| COc1ccc2nccc(CCN3CCC(NCc4cc(F)c(Cl)c(F)c4)CC3)c2n1 | 7 | – |
| O=c1ccc2ncc(=O)n3c2n1C[C@H]3CN1CCC(NCc2cc3c(cn2)OCCC3)CC1 [GEPOTIDACIN] | – | 0.86 (≈ 0.386 µg/mL) |
